Test results taken from patent US20120225417A1, “Methods, Compositions and Kits for the Evaluation and Preservation of Sperm” (I'Alliance Boviteq Inc., priority 2011, published 2012).

Experiments:
Type in all cases: biochemical
[1] = test system: 3′-5′ cAMP-PDE activity in bovine spermatozoa; test: 3′-5′ cAMP-PDE assay with family-specific PDE inhibitors in bovine spermatozoa; settings: for Percentage of family specific sensitive PDE activity, 3 h Egg yolk: bovine spermatozoa after 3 h in egg yolk based cryoprotectant at 18° C.; for Percentage of family specific sensitive PDE activity, 3 h Liquid semen: bovine spermatozoa after 3 h in liquid semen extender at 18° C.; for Percentage of family specific sensitive PDE activity, 3 h 4° C.: bovine spermatozoa after 3 h in seminal plasma at 4° C.; for Percentage of family specific sensitive PDE activity, 3 h 18° C.: bovine spermatozoa after 3 h in seminal plasma at 18° C.; for Percentage of family specific sensitive PDE activity, Fresh: bovine spermatozoa rapidly after ejaculation (0 h); for Percentage of total PDE activity sensitive to the inhibitor: cilostamide 10 μM, rolipram 10 μM, papaverine 400 nM (FIG. 12B); for Percentage of sensitive PDE activity, Cryo (B): cryopreserved bovine spermatozoa; for Percentage of sensitive PDE activity, Cryo (B) / Percentage of sensitive PDE activity, Fresh (A): Cil 10 μM, Rol 10 μM, Papa 400 nM; for Percentage of sensitive PDE activity, Fresh (A): freshly ejaculated bovine spermatozoa
Procedure: The semen was obtained from different Holstein bulls. The fresh ejaculated semen was kept in an insulated thermos flask, at 18° C., during transportation to the laboratory and processed within 3 hours after collection. The cryopreserved semen was obtained at the Centre d'Insémination […] du Québec (CIAQ) […]. The cryopreserved straws of semen were prepared according to CIAQ procedures. […] After cutting one end of the straw the semen was collected in a 15 ml falcon while cutting the other end. From this point fresh and cryopreserved semen were processed similarly. Approximately 50 μL of the semen was added to 5 mL of Talp-BSA medium in a 15 mL falcon tube to wash the spermatozoa. After centrifugation (280×g, 10 min, room temperature), the remaining pellet of approximately 100 μL was resuspended in Talp-BSA medium (500 μl for the fresh and 200 μl for two straws) to reach a concentration of 1×10^6 cells/10 μL. The samples were then vortex-agitated for 30 sec and kept on the ice until ready to run the assay. The concentration of sperm cells was measured according to hemacytometer method. The cAMP enzymatic assay (PDE assay) was conducted as previously described ([…]. et al., (2006). […] J. et al., (1979). Adv Cyclic Nucleotide Res 10, 69-92) with minor modifications. […] Measurements were also performed in the presence of PDE inhibitors: […] Cilostamide and Rolipram were purchased from Biomol. […] Each PDE assay was performed in triplicate for each experiment and each experiment was repeated at least three times. As described ([…]. et al., (2009). […] IBMX-sensitive PDE5 and PDE6 and IBMX-insensitive PDE9 activities are absent from these groups because cGMP is the specific substrate and then are not detected in the cAMP-PDE assay. […] J Dairy Sci 92, 3757-3765; […]., et al. (2007). Endocrinology 148, 1858-1867; Siuciak, J. A. et al., (2006). Neuropharmacology 51, 386-396).

[2] = test system: 3′-5′ cAMP-PDE activity in bovine testis, caput, cauda and seminal vesicles homogenates; test: 3′-5′ cAMP-PDE assay in bovine testis, caput, cauda and seminal vesicles homogenates; settings: Rol 10 μM, Papa 400 nM (FIG. 3)
Procedure: After thoroughly vortex-agitating for about one minute, samples were centrifuged at 10 000×g for 4 minutes at room temperature. Supernatant fluid was collected and diluted in different volumes of hypotonic buffer depending on the tissue. Testis, caput and cauda homogenates were diluted in 1 mL of hypotonic buffer while seminal vesicle homogenates were diluted in 2 mL of hypotonic buffer. Homogenates were kept on ice until subjected to PDE assay. The cAMP enzymatic assay (PDE assay) was conducted as previously described ([…]. et al., (2006). BMC developmental biology 6, 47). […] J. et al., (1979). Adv Cyclic Nucleotide Res 10, 69-92) with minor modifications. […] Measurements were also performed in the presence of PDE inhibitors: […] Cilostamide and Rolipram were purchased from Biomol. […] Each PDE assay was performed in triplicate for each experiment and each experiment was repeated at least three times. As described ([…]. et al., (2009). […] IBMX-sensitive PDE5 and PDE6 and IBMX-insensitive PDE9 activities are absent from these groups because cGMP is the specific substrate and then are not detected in the cAMP-PDE assay. […] J Dairy Sci 92, 3757-3765; […]., et al. (2007). Endocrinology 148, 1858-1867; Siuciak, J. A. et al., (2006). Neuropharmacology 51, 386-396).

[3] = test system: 3′-5′ cAMP-PDE activity in human seminal plasma; test: 3′-5′ cAMP-PDE assay with family-specific PDE inhibitors in human seminal plasma; settings: fresh human seminal plasma; Rolipram 10 μM, Papaverine 400 nM (FIG. 19)
Procedure: A certain amount of complete ejaculate was kept to isolate spermatozoa from seminal plasma. This portion was centrifuged at 400×g during 10 minutes at room temperature to gently pull down spermatozoa. Supernatant was transferred and centrifuged again at 6 000×g at 4° C. during 20 minutes to pull down any remaining spermatozoa. Supernatant was then transferred and centrifuged at 6 000×g at 4° C. during 20 minutes to remove any remaining debris. SP samples were kept on ice until used for PDE assay and stored at -80° C. for further characterization. The cAMP enzymatic assay (PDE assay) was conducted as previously described ([…]. et al., (2006). BMC developmental biology 6, 47). […] J. et al., (1979). Adv Cyclic Nucleotide Res 10, 69-92) with minor modifications. […] Measurements were also performed in the presence of PDE inhibitors: […] Cilostamide and Rolipram were purchased from Biomol. […] Each PDE assay was performed in triplicate for each experiment and each experiment was repeated at least three times. As described ([…]. et al., (2009). […] IBMX-sensitive PDE5 and PDE6 and IBMX-insensitive PDE9 activities are absent from these groups because cGMP is the specific substrate and then are not detected in the cAMP-PDE assay. […] J Dairy Sci 92, 3757-3765; […]., et al. (2007). Endocrinology 148, 1858-1867; Siuciak, J. A. et al., (2006). Neuropharmacology 51, 386-396).

[4] = bovine spermatozoa, 1 μM cAMP, IBMX 1 mM

| Compound | Percentage of family specific sensitive PDE activity, 3 h Egg yolk [1] | Percentage of family specific sensitive PDE activity, 3 h Liquid semen [1] | Percentage of family specific sensitive PDE activity, 3 h 4° C. [1] | Percentage of family specific sensitive PDE activity, 3 h 18° C. [1] | Percentage of family specific sensitive PDE activity, Fresh [1] | Percentage of total PDE activity that is IBMX-insensitive (PDE8) [1, 4] | Percentage of total PDE activity sensitive to the inhibitor [1, 4] | Percentage of sensitive PDE activity, Cryo (B) ([1]; IBMX 1 mM) | Percentage of sensitive PDE activity, Fresh (A) ([1]; IBMX 1 mM) | Inhibitor-sensitive PDE activity in bovine male reproductive tissues (in words) [2] | Inhibitor-sensitive PDE activity in human seminal plasma (in words) [3] | Increase of the inhibited proportion of cAMP-PDE activity relative to papaverine ([1]; freshly ejaculated bovine spermatozoa (FIG. 21)) |
| --- | --- | --- | --- | --- | --- | --- | --- | --- | --- | --- | --- | --- |
| CC(C)Cn1c(=O)n(C)c(=O)c2[nH]cnc21 [IBMX, 3-isobutyl-1-methylxanthine] | 96% | 96% | 96% | 95% | 95% | 8% | 92% | 96% | 94% | – | – | – |
| COc1ccc(C2CNC(=O)C2)cc1OC1CCCC1 (stereo not shown) [Rolipram] | 18% | 11% | 12% | 9% | 11% | – | 11% | 10% | 12% | highly functional | high | – |
| OCCN(CCO)c1nc(N2CCCCC2)c2nc(N(CCO)CCO)nc(N3CCCCC3)c2n1 [dipyridamol, dipyridamole] | – | – | – | – | – | – | – | – | – | – | – | 10% |
| CN(C(=O)CCCOc1ccc2[nH]c(=O)ccc2c1)C1CCCCC1 [Cilostamide] | 24% | 7% | 11% | 20% | 13% | – | 9% | 5% | 14% | – | – | – |
